{"source": "patent US20200113816A1", "about": "“REACTIONS TRIGGERED BY COOLING-INDUCED GEL-TO-SOL TRANSITION OF THERMORESPONSIVE POLYMERS” (Vanderbilt University, priority 2018, published 2020)", "tested_on": "Sprague-Dawley rats", "assay": "Neurobehavioral testing of nerve block, cooling-triggered local anesthesia", "type": "in vivo", "conditions": "injected, 15 mg/mL in sterile saline", "text": "Nile Red- or bupivacaine-loaded gels are implanted in adult Sprague-Dawley rats alongside a wireless temperature probe. Stability are characterized using dye-loaded formulations, with animals imaged daily to determine the extent to which the dye leaks from the gelled implant; quantitative data are derived from depletion of the Nile Red fluorescence signal. To characterize release, rats implanted with dye-loaded formulations are subjected to a cooling stimulus (ice applied to the skin while tissue temperature is remotely monitored), and subsequently imaged to determine the extent to which cooling triggers release of the sequestered compound in vivo as observed by decrease in the depot fluorescence intensity. Multiple cycles of cooling are performed (with a 24-hour recovery period between cycles) until no significant change in the fluorescence signal from the depot is observed. […] The difference between the duration of nerve blocks due to injection of bupivacaine solution and the duration of blocks caused by cooling-triggered release from an implanted device is determined. To investigate tissue response to the implanted devices, after the animals are sacrificed the tissue surrounding the sciatic nerve is removed, processed for histology (H&E staining), and analyzed via optical microscopy."}
{"smiles": "CCCCN1CCCCC1C(=O)Nc1c(C)cccc1C", "note": "(stereo not shown) [bupivacaine]", "values": [{"measurement": "baseline nerve block duration", "value": "~200", "unit": "min"}]}
